# Measurements: patent US8759343B2 (priority 2007, dated 2014)
# Where a name gives a salt, the structure may show the parent alone.
row,melting point [°C],Compound
1,152 to 154,c1ccc2oc(-c3ccc(C45CCCN(CCC4)C5)cn3)cc2c1
2,163 to 165,c1ccc2cc(-c3ccc(C45CCCN(CCC4)C5)cn3)ccc2c1
3,116 to 117,Fc1ncccc1-c1ccc(C23CCN(CC2)C3)cn1
4,121 to 122,Fc1ccc(-c2ccc(C34CCCN(CCC3)C4)cn2)cn1
5,147 to 149,c1cc(-c2ccc(C34CCCN(CCC3)C4)cn2)c2cccnc2c1
6,144,Fc1cc(-c2ccc(C34CCCN(CCC3)C4)cn2)ccc1-c1ccccc1
7,95 to 98,CC(=O)c1cccc(-c2ccc(C34CCN(CC3)C4)cn2)c1
8,134 to 136,Cc1ccc(-c2ccc(C34CCN(CC3)C4)cn2)cc1
9,153 to 155,Fc1cc(-c2ccc(C34CCN(CC3)C4)cn2)ccc1-c1ccccc1
10,254 to 256,c1cc(-c2ccc(C34CCN(CC3)C4)cn2)ccn1
11,129 to 131,c1cc(-c2ccc(C34CCN(CC3)C4)cn2)c2cccnc2c1
12,87 to 89,COc1cccc(-c2ccc(C34CCN(CC3)C4)cn2)c1
13,85 to 87,Fc1ccc(-c2ccc(C34CCN(CC3)C4)cn2)cc1F
14,202 to 203,c1ccc2sc(-c3ccc(C45CCN(CC4)C5)cn3)cc2c1
15,102 to 104,Fc1cccc(-c2ccc(C34CCCN(CCC3)C4)cn2)c1
16,279 to 281,c1cc(-c2ccc(C34CCN(CC3)C4)cn2)co1
17,158 to 160,c1ccc2c(c1)oc1c(-c3ccc(C45CCN(CC4)C5)cn3)cccc12
18,267 to 268,c1ccc2ncc(-c3ccc(C45CCN(CC4)C5)cn3)cc2c1
19,228 to 229,c1cncc(-c2ccc(C34CCN(CC3)C4)cn2)c1
20,75 to 76,FC(F)(F)Oc1ccc(-c2ccc(C34CCN(CC3)C4)cn2)cc1
21,176 to 178,c1ccc2sc(-c3ccc(C45CCCN(CCC4)C5)cn3)cc2c1
22,169 to 170,COc1cc(F)ccc1-c1ccc(C23CCN(CC2)C3)cn1
23,142 to 144,c1ccc2c(c1)oc1c(-c3ccc(C45CCCN(CCC4)C5)cn3)cccc12
24,124 to 126,c1cc2c(cc1-c1ccc(C34CCCN(CCC3)C4)cn1)OCO2

row,melting point [°C],Compound
1,151 to 153,c1cnc2ccc(-c3ccc(C45CCCN(CCC4)C5)cn3)cc2c1
2,166 to 168,Cn1ccc2cc(-c3ccc(C45CCCN(CCC4)C5)cn3)ccc21
3,152 to 154,c1cc(-c2ccc(C34CCCN(CCC3)C4)cn2)c[nH]1
4,107 to 109,Fc1ccc(-c2ccc(C34CCCN(CCC3)C4)cn2)cc1
5,244 to 246,c1ncc(-c2ccc(C34CCN(CC3)C4)cn2)cn1
6,104 to 106,COc1ncc(-c2ccc(C34CCN(CC3)C4)cn2)c(OC)n1
7,146 to 148,c1ccc(-c2ccc(-c3ccc(C45CCCN(CCC4)C5)cn3)cc2)cc1
8,335 to 337,c1cc(-c2ccc(C34CCCN(CCC3)C4)cn2)co1
9,118 to 120,c1cncc(-c2ccc(C34CCCN(CCC3)C4)cn2)c1
10,120 to 122,FC(F)(F)Oc1ccc(-c2ccc(C34CCCN(CCC3)C4)cn2)cc1
11,148 to 150,COc1cc(F)ccc1-c1ccc(C23CCCN(CCC2)C3)cn1
12,160 to 162,c1ccc2ncc(-c3ccc(C45CCCN(CCC4)C5)cn3)cc2c1
13,191 to 192,c1ccc(-c2ccc(-c3ccc(C45CCN(CC4)C5)cn3)cc2)cc1
14,176 to 178,c1cnc2c(-c3ccc(C45CCN(CC4)C5)cn3)cccc2c1
15,138 to 139,COc1ccc(-c2ccc(C34CCCN(CCC3)C4)cn2)cc1
16,139 to 140,c1cc2nonc2cc1-c1ccc(C23CCN(CC2)C3)cn1
17,226 to 227,c1nc(N2CCOCC2)ncc1-c1ccc(C23CCN(CC2)C3)cn1
18,95 to 97,COc1cc(F)cc(-c2ccc(C34CCN(CC3)C4)cn2)c1
19,125 to 126,COc1ccc(-c2ccc(C34CCN(CC3)C4)cn2)cc1F
20,144 to 146,COc1cccc(-c2ccc(C34CCN(CC3)C4)cn2)c1F
21,138 to 140,COc1ccc(-c2ccc(C34CCCN(CCC3)C4)cn2)cc1F
22,144 to 146,COc1cccc(-c2ccc(C34CCCN(CCC3)C4)cn2)c1F
23,105 to 107,Cn1cccc1-c1ccc(C23CCCN(CCC2)C3)cn1
24,135 to 137,c1cc(-c2ccc(C34CCCN(CCC3)C4)cn2)cc(-n2cccn2)c1

row,melting point [°C],Compound
1,127 to 129,c1csc(-c2ccc(C34CCN(CC3)C4)cn2)n1
2,139 to 141,c1ncc(-c2ccc(C34CCCN(CCC3)C4)cn2)cn1
3,167 to 169,c1ccc2c(-c3ccc(C45CCCN(CCC4)C5)cn3)cccc2c1
4,189 to 191,c1nc(N2CCOCC2)ncc1-c1ccc(C23CCCN(CCC2)C3)cn1
5,81 to 83,COc1ncc(-c2ccc(C34CCCN(CCC3)C4)cn2)c(OC)n1
6,151 to 153,c1cc2nonc2cc1-c1ccc(C23CCCN(CCC2)C3)cn1
7,103 to 105,c1ccc(-c2ccc(C34CCCN(CCC3)C4)cn2)cc1
8,101 to 103,COc1ccc(OC)c(-c2ccc(C34CCCN(CCC3)C4)cn2)c1
9,135 to 137,FC(F)(F)c1ccc(-c2ccc(C34CCCN(CCC3)C4)cn2)cc1
10,134 to 136,COc1ccncc1-c1ccc(C23CCCN(CCC2)C3)cn1
11,124 to 126,c1csc(-c2ccc(C34CCCN(CCC3)C4)cn2)n1
12,129 to 131,c1ccc(Oc2ccc(-c3ccc(C45CCCN(CCC4)C5)cn3)cc2)cc1
13,117 to 119,Fc1ccccc1-c1ccc(C23CCCN(CCC2)C3)cn1
14,301 to 303,c1cc(N2CCCC2)ncc1-c1ccc(C23CCCN(CCC2)C3)cn1
15,202 to 204,CC(C)(C)OC(=O)N1CCN(c2ccc(-c3ccc(C45CCCN(CCC4)C5)cn3)cn2)CC1
16,143 to 145,c1ccc2c(-c3ccc(C45CCN(CC4)C5)cn3)cncc2c1
17,176 to 178,c1cc(-c2ccc(C34CCN(CC3)C4)cn2)c2ccncc2c1
18,126 to 128,c1ccc(-c2ccc(C34CCN(CC3)C4)cn2)cc1
19,117 to 119,FC(F)(F)c1cc(-c2ccc(C34CCN(CC3)C4)cn2)cc(C(F)(F)F)c1
20,97 to 99,COc1ccncc1-c1ccc(C23CCN(CC2)C3)cn1
21,216 to 218,CC(C)(C)OC(=O)N1CCN(c2ccc(-c3ccc(C45CCN(CC4)C5)cn3)cn2)CC1
22,164 to 165,c1ccc2oc(-c3ccc(C45CCN(CC4)C5)cn3)cc2c1
23,108 to 109,Fc1ccc(-c2ccc(C34CCN(CC3)C4)cn2)cn1
24,98 to 99,Fc1ncccc1-c1ccc(C23CCCN(CCC2)C3)cn1

row,melting point [°C],Compound
1,110 to 112,Fc1ccccc1-c1ccc(C23CCN(CC2)C3)cn1
2,160 to 162,COc1ccc(-c2ccc(C34CCN(CC3)C4)cn2)cc1
3,154 to 156,c1ccc2cc(-c3ccc(C45CCN(CC4)C5)cn3)ccc2c1
4,141 to 143,c1ccc(Oc2ccc(-c3ccc(C45CCN(CC4)C5)cn3)cc2)cc1
5,284 to 285,CC(=O)c1cccc(-c2ccc(C34CCCN(CCC3)C4)cn2)c1 (as salt: HBr)
6,155 to 157,FC(F)(F)c1cccc(-c2ccc(C34CCCN(CCC3)C4)cn2)c1 (as salt: HBr)
7,332 to 334,c1ccc2c(-c3ccc(C45CCCN(CCC4)C5)cn3)cncc2c1 (as salt: HBr)
8,226 to 228,FC(F)(F)c1cc(-c2ccc(C34CCCN(CCC3)C4)cn2)cc(C(F)(F)F)c1 (as salt: HBr)
9,239 to 241,COc1ccccc1-c1ccc(C23CCCN(CCC2)C3)cn1 (as salt: HBr)
10,198 to 200,COc1ccc(-c2ccc(C34CCCN(CCC3)C4)cn2)c(OC)c1 (as salt: HBr)
11,267 to 269,FC(F)(F)Oc1cccc(-c2ccc(C34CCCN(CCC3)C4)cn2)c1 (as salt: HBr)
12,246 to 248,c1cc(-c2ccc(C34CCCN(CCC3)C4)cn2)c2ccncc2c1 (as salt: HBr)
13,114 to 116,COc1ccccc1-c1ccc(C23CCN(CC2)C3)cn1 (as salt: HBr)
14,195 to 197,COc1ccc(-c2ccc(C34CCN(CC3)C4)cn2)c(OC)c1 (as salt: HBr)
15,152 to 154,COc1ccc(OC)c(-c2ccc(C34CCN(CC3)C4)cn2)c1 (as salt: HBr)
16,310 to 312,FC(F)(F)c1ccccc1-c1ccc(C23CCN(CC2)C3)cn1 (as salt: HBr)
17,152 to 154,FC(F)(F)Oc1cccc(-c2ccc(C34CCN(CC3)C4)cn2)c1 (as salt: HCl)
18,247 to 249,COc1ccc(-c2ccc(C34CCN(CC3)C4)cn2)cc1OC (as salt: HCl)
19,191 to 192,FC(F)(F)c1cccc(-c2ccc(C34CCN(CC3)C4)cn2)c1 (as salt: HCl)
20,324 to 326,c1cc(-c2ccc(C34CCN(CC3)C4)cn2)c[nH]1 (as salt: HCl)
21,258 to 260,c1ccc2c(c1)nnn2-c1ccc(C23CCCN(CCC2)C3)cn1 (as salt: HCl)
22,242 to 244,c1ccc2c(c1)sc1ccc(-c3ccc(C45CCCN(CCC4)C5)cn3)cc12 (as salt: HCl)
23,267 to 269,COc1cccc(-c2ccc(C34CCCN(CCC3)C4)cn2)c1 (as salt: HCl)
24,248 to 250,Cn1cccc1-c1ccc(C23CCN(CC2)C3)cn1 (as salt: HCl)

row,Compound,melting point [°C]
1,"c1cnc2ccc(-c3ccc(C45CCN(CC4)C5)cn3)cc2c1 (as salt: HCl) [Compound 12, 6-[5-(1-azabicyclo[2.2.1]hept-4-yl)pyridin-2-yl]quinoline]",327 to 328
